Experimental data published in article PMC10808066, “The CRISPR effector Cam1 mediates membrane depolarization for phage defence” (Nature, 2024).
Values joined by “and” are separate entries in the source; they are usually repeats but may differ in a detail not shown here. Equal entries are not always repeated. Blank lines part the entries; values can stand above or below the molecule they belong to.

Experiments:
[1] = molecular target: T1, NhCam1 (cyclic oligoadenylate-activated membrane protein 1; WP_013033759) (Nitrosococcus halophilus, UniProt D5BXZ3, N76A/S75A); test: ITC; type: binding
T1 construct: gene Nhal_2839; CARF domain, residues 67–206

[2] = molecular target: T2, NhCam1 (cyclic oligoadenylate-activated membrane protein 1; WP_013033759) (Nitrosococcus halophilus, UniProt D5BXZ3, T183A/Y180A); test: ITC; type: binding
T2 construct: gene Nhal_2839; CARF domain, residues 67–206

[3] = molecular target: T3, NhCam1 (cyclic oligoadenylate-activated membrane protein 1; WP_013033759) (Nitrosococcus halophilus, UniProt D5BXZ3); test: ITC; […] Å X-ray crystal structure; type: binding
T3 construct: gene Nhal_2839; CARF domain, residues 67–206 (ITC; Methods: 66–206); residues 42–206 (crystal); homodimer, one ligand per dimer
T3 sequence (D5BXZ3 67-206): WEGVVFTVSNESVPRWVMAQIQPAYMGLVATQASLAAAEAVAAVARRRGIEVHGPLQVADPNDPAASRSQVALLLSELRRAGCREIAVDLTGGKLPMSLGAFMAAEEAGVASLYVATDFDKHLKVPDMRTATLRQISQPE

[4] = molecular target: T4, NhCam1 (cyclic oligoadenylate-activated membrane protein 1; WP_013033759) (Nitrosococcus halophilus, UniProt D5BXZ3, M194A/P192A/V79A); test: ITC; type: binding
T4 construct: gene Nhal_2839; CARF domain, residues 67–206

[5] = molecular target: T5, NhCam1 (cyclic oligoadenylate-activated membrane protein 1; WP_013033759) (Nitrosococcus halophilus, UniProt D5BXZ3, T97A); test: ITC; type: binding
T5 construct: gene Nhal_2839; CARF domain, residues 67–206

[6] = molecular target: MGSS–His6–TEV–NhCam1 (full-length NhCam1) (Nitrosococcus halophilus Nc4); test: SEC-MALS; full-length Cam1 in DDM micelles, conjugate analysis; 25 mM Tris pH 8, 500 mM NaCl, 2 mM β-mercaptoethanol, 0.02% DDM
[7] = molecular target: MvCam1-His (Methylomarium vadi); test: cross-linking; in vivo in S. aureus, 2 mM DSS and BMH, 1 h at room temperature, with or without aTc; Western blot of lysates with anti-His6
[8] = molecular target: NhCam1–His (Nitrosococcus halophilus Nc4); test: as above
[9] = molecular target: gpCam1-His (unknown Gammaproteobacterium); test: as above

Molecule: Nc1ncnc2c1ncn2[C@@H]1O[C@@H]2COP(=O)(O)O[C@H]3[C@@H](O)[C@H](n4cnc5c(N)ncnc54)O[C@@H]3COP(=O)(O)O[C@H]3[C@@H](O)[C@H](n4cnc5c(N)ncnc54)O[C@@H]3COP(=O)(O)O[C@H]3[C@@H](O)[C@H](n4cnc5c(N)ncnc54)O[C@@H]3COP(=O)(O)O[C@H]2[C@H]1O [cA4]
Kd [1]: 4 µM
Kd [2]: 4.5 µM
Kd [3]: 0.012 µM
Kd [4]: 2.1 µM
Kd [5]: 3.74 µM

Molecule: MvCam1-His (natural protein)
stoichiometry N [7]: 2 and 4

The next lines start with the values.

stoichiometry N [6]: 4
Molecule: MGSS–His6–TEV–NhCam1 (full-length NhCam1) (natural protein)

stoichiometry N [8]: 2 and 4
Molecule: NhCam1–His (natural protein)

stoichiometry N [9]: 2 and 4
Molecule: gpCam1-His (natural protein)
